According to patent US4122189A, “Medicine for renal diseases” (priority 1976, dated 1978):

Experiments:
[1] = tested on: patients having excessive urinary protein; settings: 150 to 1800 mg/day, with or without additional medicines
Protocol: When used in combination, the additional medicines were dosed in the amount usual for each of such additional medicines.
The amount of urine protein was measured for the clinical tests. The elimination or remarkable degree of reduction of urine protein was considered to be effective.
The non-steroid anti-inflammatory agents such as Ibuprofen, Indomethacin, Azapropazone, and steroids such as Predonizolone and antibiotics such as Cephalexin, methyl chlorophenyl iso-oxazolyl penicillin were used as the additional medicines.

Aminonucleoside nephrose = assay: Therapy for Aminonucleoside nephrose (urine and blood biochemical observations); type: in vivo, SD type male rats; settings: 1000 mg/kg/day oral, 10 days
Protocol: SD type male rats (weight about 100 g) were fed in each individual room of a metabolism cage under the free water and feed supply.
The rats were classified as the normal group for eight rats, the renal disease group for eight rats and the therapy group for eight rats.
0.3% Aminoucleoside aqueous solution (hereinafter referring to as AN) was administrated by intramuscular injection at a dose of 0.3 ml per 100 g of the rat.
The administration was continued from the 1st day to the 14th day at one time per day.
The data in Tables are average value for eight rats in each group.
The difference between the renal disease group and the therapy group was significant. The symbol * means the existence of significant difference in 5% of the level of significance and the symbol (*) means the existence of significant difference in 5 to 1% of the level of significance. The symbol -- means non-significant difference.

[2] = tested on: hetero antikidney serum nephritis; assay: Therapy for hetero antikidney serum nephritis; type: in vivo, Wister type male rats; settings: 1000 mg/kg/day oral
Protocol: Antikidney serum (rabbit) prepared in accordance with the Heymann method was intravenously injected into tail vein at a dose of 0.5 ml per 100 g of rat at one time per day.
In Table 3, the symbols for tissue observation mean the following conditions of tissues.
A: proliferation of polymorphs of glomeruli
C: thickning of the basement membrane of the glomerular capillaries
D: obliteration of the glomerular capillary loops
F: exudate in Bowman's subcapsule space
G: thickning of Bowman's capsule
H: crescent formation of glomeruli
I: proteinaeous fluid in the tubli
J: swelling of tublar epithelium
K: proliferation of interstitial tissue cells
In Table 4, the degree of lesions were rated as follows:
0: no lesion of tissue is found;
0.5: slight lesion of tissue is found;
1: clear sporadic or slight lesion of tissue is found;
3: inflamed or clear lesion of tissue is found.
The average of ratings for 5 rats in each group is shown.
The level of significance was considered as the same with those of Table 1.

mouse = assay: Toxicity test (LD50); type: in vivo, ddY type mice; settings: mice, oral and intraperitoneal
Protocol: The test was carried out by the oral dose and the intraperitoneal injection of each solution in 10 ddY type male mice and 10 ddY femal mice. The results after 72 hours from the administration were observed. Probit analysis was used for statistical treatment of mortality.

[3] = average lesion rating 0-3 (3 inflamed or clear), normal 0, renal disease group 1.1, significance *
[4] = average lesion rating 0-3 (3 inflamed or clear), normal 0, renal disease group 1.7, significance *

## C[S+](C)CCC(N)C(=O)O (stereo not shown) [Methyl methionine sulfonium chloride]
[1]
  effective cases (elimination or remarkable reduction of urine protein): 32 cases among 45 patients
Aminonucleoside nephrose; normal 0.1, renal disease group 2.4, significance *
  Urine albumin: 1.6 g/dL
Aminonucleoside nephrose; normal 0.6, renal disease group 5.2, significance *
  Urine protein: 4.0 g/dL
Aminonucleoside nephrose; normal 2.60, renal disease group 0.49, significance *
  Serum albumin: 1.25 g/dL
Aminonucleoside nephrose; normal 5.1, renal disease group 5.4, non-significant
  Serum K^+: 5.6 m Eq/l
Aminonucleoside nephrose; normal 6.48, renal disease group 3.60, significance *
  Serum total protein: 4.47 g/dL
Aminonucleoside nephrose; normal 6.6, renal disease group 196, significance *
  Urine albumin: 106 mg/day
Aminonucleoside nephrose; normal 6.7, renal disease group 6.5, significance (*)
  Urine pH: 6.2
Aminonucleoside nephrose; normal 9.4, renal disease group 8.5, significance (*)
  Urine amount: 6.9 mL/day
Aminonucleoside nephrose; normal 25.2, renal disease group 44.8, significance *
  Serum urea nitrogen: 23.8 mg/dL
Aminonucleoside nephrose; normal 54, renal disease group 441, significance *
  Urine protein: 294 mg/day
Aminonucleoside nephrose; normal 84.3, renal disease group 277, significance *
  Serum cholesterol: 149 mg/dL
Aminonucleoside nephrose; normal 134, renal disease group 135, non-significant
  Serum Na^+: 134 m Eq/l
Aminonucleoside nephrose; normal 160, renal disease group 54, significance *
  Urine Na: 109 m Eq/l
Aminonucleoside nephrose; normal 169, renal disease group 135, non-significant
  Serum glycose: 138 mg/dL
Aminonucleoside nephrose; normal 180, renal disease group 196, significance *
  Weight: 176 g
Aminonucleoside nephrose; normal 230, renal disease group 204, non-significant
  Urine K: 210 m Eq/l
[2]; 9 days, normal 6.3, renal disease group 121, non-significant
  Urine urea: 104 mg/day
[2]; 9 days, normal 23, renal disease group 25, non-significant
  Urea nitrogen in blood: 24 mg/dL
[2]; average lesion rating 0-3 (3 inflamed or clear), normal 0, renal disease group 0, non-significant
  Observation of tissue F: exudate in Bowman's subcapsule space: 0
[2]; average lesion rating 0-3 (3 inflamed or clear), normal 0, renal disease group 0.2, non-significant
  Observation of tissue K: proliferation of interstitial tissue cells: 0.3
[2]; [3]
  Observation of tissue B: thrombus formation: 0.1
  Observation of tissue G: thickning of Bowman's capsule: 0
  Observation of tissue H: crescent formation of glomeruli: 0
[2]; [4]
  Observation of tissue C: thickning of the basement membrane of the glomerular capillaries: 0.4
  Observation of tissue D: obliteration of the glomerular capillary loops: 0.3
[2]; average lesion rating 0-3 (3 inflamed or clear), normal 0, renal disease group 2.2, significance *
  Observation of tissue E: anemia: 0.1
[2]; average lesion rating 0-3 (3 inflamed or clear), normal 0.5, renal disease group 1.6, non-significant
  Observation of tissue J: swelling of tublar epithelium: 1.3
[2]; average lesion rating 0-3 (3 inflamed or clear), normal 0.6, renal disease group 1.8, significance (*)
  Observation of tissue I: proteinaeous fluid in the tubli: 0.8
[2]; average lesion rating (0 none, 0.5 slight, 1 clear sporadic or slight, 3 inflamed or clear), normal 0, renal disease group 1.4, significance (*)
  Observation of tissue A: proliferation of polymorphs of glomeruli: 0.5
mouse
  toxicity: low toxicity
